Patent US7371731B2, “Methods for using glucose pentasulfate for treating amyloid associated with type II diabetes” (priority 1998, dated 2008)
“Also recorded” adds a separate entry of the source. Where two headings read alike, the source gives them in different places.

Tests used:
[1] = target: T1, human islet amyloid polypeptide (Homo sapiens, UniProt P10997); test: Thioflavin T fluorometry assay of islet amyloid polypeptide (amylin) fibrils; format: biochemical; settings: 1.25 mM
T1 construct: consists of a 37 amino acid protein known as islet amyloid polypeptide or amylin; purchased Bachem Inc, Torrance, Calif., USA
T1 sequence (P10997 34-70 limits assumed): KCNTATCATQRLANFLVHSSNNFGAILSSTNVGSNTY
Procedure: (§1) To assess the effects of each compound on Aβ (1-40) fibril formation, 50 μl aliquots were taken from each tube for analysis at 1 hr, 1 day, 3 days, and 1 week. For each determination described above, following each incubation period, 50 μl of Aβ+/−test compounds were added to 1.2 ml of 100 μM Thioflavin T (Sigma Chemical Co., St. Louis, Mo.) in 50 mM NaPO4 (pH 6.0). […] Fluorescence emission at 482 nm was measured on a Turner instrument-model 450 fluorometer at an excitation wavelength of 450 nm. For each determination, the fluorometer was calibrated by zeroing in the presence of the Thioflavin T reagent alone, and by seting the 50 ng/ml riboflavin (Sigma Chemical Co., St. Louis, Mo.) in the Thioflavin T reagent to 1800 fluorescence units. All fluorescence determinations were based on these references and any fluorescence given off by any of the compounds in the presence of the Thioflavin T reagent was always subtracted from all pertinent readings.
For this study, the method of Thioflavin T fluorometry as described above was used. Briefly, 25 μM of human islet amyloid polypeptide (Bachem Inc, Torrance, Calif., USA, Lot # WL934) was incubated in microcentrifuge tubes at 37° C. for 1 week (in triplicate), either alone, or in the presence of 1.25 mM glucose pentasulfate (PTI-48579; molecular weight=771) or mannose pentasulfate (PTI-07499; molecular weight=771). To assess the effects of glucose pentasulfate and mannose pentasulfate on islet amyloid polypeptide fibrillogenesis, 50 μl aliquots were taken from each tube for analysis at 1 hr, 1 day, 2 days, 3 days, 4 days and 1 week. For each determination described above, following each incubation period, 50 μl aliquots of islet amyloid polypeptide+/−glucose pentasulfate or mannose pentasulfate were added to 1.2 ml of 100 μM Thioflavin T (Sigma Chemical Co., St. Louis, Mo.) in 50 mM NaPO4 (pH 6.0) for fluorometry readings as described in section 4.1.

[2] = target: T2, Aβ-heparin binding (Homo sapiens, UniProt P05067); test: Solid phase binding immunoassay, binding of Aβ to substrate bound heparin; settings: 5 μM Aβ 1-40
T2 construct: 25 μM of Aβ (1-40)(Bachem Inc., Torrance, Calif., USA; Lot #WM365); purchased Bachem Inc., Torrance, Calif., USA
Procedure: (§2) 12 μg of heparin (molecular weight=5,000; obtained from the Sigma Chemical Company, St. Louis, Mo., USA) or heparan sulfate (molecular weight=˜70,000; obtained from Seikagaku America, Rockville, Md.) in 80 μl of Tris-buffered saline containing 100 mM Tris-HCl, 50 mM NaCl, 3 mM NaN3, pH 9.0 (TBS) was allowed to bind overnight at 4° C. to microtiter wells (Nunc plates, Maxisorb). The next day all of the microtiter wells were blocked for 2 hours by incubating with 300 μl of TBS with 0.05% Tween-20 (TTBS) plus 1% bovine serum albumin (BSA) (obtained from the Sigma Chemical Company, St. Louis, Mo., USA). Then, 100 μl of 5 μM Aβ 1-40 (Bachem Inc., Torrance, Calif., USA; Lot #WM365) in TTBS containing 0.05% albumin in the presence or absence of glucose pentasulfate at concentrations of 2.5 mM, 0.83 mM, 0.28 mM and 0.093 mM were placed in wells (in triplicate) containing substrate bound perlecan or blank, and allowed to bind overnight at 4° C. The next day, the wells were rinsed once with TTBS, and then probed for 45 minutes with 100 μl of anti-6E10 (Senetek, Maryland Heights, Mo.)(which recognizes Aβ 1-17) diluted 1:1000 with TTBS. This was followed by rinsing once with TTBS and probed for 45 minutes with biotinylated goat-anti mouse (diluted 1:1000) containing streptavidin-peroxidase or anti-biotin-peroxidase (1:500 dilution of a 2 μg/ml solution) (Sigma Chemical Co., St. Louis, Mo.) in TTBS containing 0.1% BSA. The wells were then rinsed 3 times with TTBS and 100 μl of a substrate solution (OPD-Sigma Fast from Sigma Chemical Co., St. Louis, Mo.) was added to each well and allowed to develop for 5 minutes or until a significant color change was observed. The reaction was stopped with 50 μl of 4N H2SO4 and read on a Model 450 microplate reader (Biorad, Hercules, Calif., USA) at 490 nm.

[3] = target: T3, pre-formed Aβ (1-40) amyloid fibrils (Homo sapiens, UniProt P05067); test: Thioflavin T fluorometry assay of dissolution of pre-formed Aβ (1-40) amyloid fibrils; format: biochemical; settings: 25 μM fibrillized Aβ, 4 day incubation
T3 construct: 25 μM of Aβ (1-40)(Bachem Inc., Torrance, Calif., USA; Lot #WM365); purchased Bachem Inc., Torrance, Calif., USA
Procedure: as §1
For this study, 1 mg of Aβ (1-40) (Bachem Inc., Torrance, Calif., USA; Lot #WM365) was dissolved in 1.0 ml of double distilled water (1 mg/ml solution) and then incubated at 37° C. for 1 week. 25 μM of fibrillized Aβ was then incubated at 37° C. in the presence or absence of glucose pentasulfate at concentrations of 1.25 mM, 0.63 mM, 0.31 mM and 0.16 mM containing 150 mM Tris HCl, 10 mM NaCl, pH 7.0. Following a 4 day incubation, 50 μl aliquots were added to 1.2 ml of 100 μM Thioflavin T (Sigma Chemical Co., St. Louis, Mo.) in 50 mM NaPO4 (pH 6.0) for fluorometry readings as described in section 4.1.

[4] = target: T4, Aβ (1-40) (Homo sapiens, UniProt P05067); test: Thioflavin T fluorometry assay of Aβ (1-40) amyloid fibril formation; format: biochemical; settings: for effect on Aβ (1-40) amyloid fibril formation (in words): 1.25 mM compound (1:50 M ratio), 1-week incubation
T4 construct: 25 μM of Aβ (1-40)(Bachem Inc., Torrance, Calif., USA; Lot #WM365); purchased Bachem Inc., Torrance, Calif., USA
Description: A previously described method of measuring amyloid fibril formation utilizing Thioflavin T fluorometry (H Naiki et al, Lab. Invest. 65:104-110, 1991; H Levine III, Protein Sci. 2:404-410, 1993; H Levine III, Amyloid: Int. J. Exp. Clin. Invest. 2:1-6, 1995; H Naiki and K. Nakakuki, Lab. Invest. 74:374-383, 1996) was employed initially to identify potential therapeutic compounds capable of inhibiting Aβ amyloid fibril formation. Using this sensitive assay, any decreases or increases in fluorescence were previously shown to correlate with a decrease or increase in the amount of amyloid fibrils (H Naiki et al, Lab. Invest. 65:104-110, 1991; H Levine III, Protein Sci. 2:404-410, 1993; H Levine III, Amyloid: Int. J. Exp. Clin. Invest. 2:1-6, 1995; H Naiki and K. Nakakuki, Lab. Invest. 74:374-383, 1996), allowing one to determine the identification and extent of potential inhibitors and/or enhancers of amyloid fibril formation.
In an initial set of studies, the effects of various compounds on Aβ (1-40) fibrillogenesis was assessed. For these initial studies, 25 μM of Aβ (1-40)(Bachem Inc., Torrance, Calif., USA; Lot #WM365) was incubated in microcentrifuge tubes at 37° C. for 1 week (in triplicate), either alone, or in the presence of 1.25 mM (ie. 1:50 M ratio of Aβ:test compound) of various commercially available compounds (described below) in 150 mM Tris HCl, 10 mM NaCl, pH 7.0 (TBS). The compounds tested included glucose pentasulfate (PTI-48579, potassium salt; molecular weight=771), mannose pentasulfate (PTI-07499, potassium salt; molecular weight=771), methyl alpha-D-glucopyranoside 2,3,4,6-tetrasulfate (PTI-20049, potassium salt; molecular weight=667), methyl alpha-D-mannopyranoside 2,3,4,6-tetrasulfate (PTI-20814, potassium salt; molecular weight=667), sucrose heptasulfate (PTI-70936, potassium salt; molecular weight=1169), sucrose hexasulfate (PTI-70946, potassium salt; molecular weight=1052), and sucrose octasulfate (PTI-70011, potassium salt; molecular weight=1288).
as §1
For all fibrillogenesis studies utilizing Thioflavin T fluorometry, comparisons of Aβ in the presence or absence of test compounds were based on paired Student's t tests with data shown as mean+/−standard deviation. Significance was reported at the 95% (p<0.05), 99% (p<0.01) and 99.9% (p<0.001) confidence levels.
In this study, the dose-dependent effects of glucose pentasulfate (PTI-48579) on Aβ (1-40) fibrillogenesis was determined using the Thioflavin T fluorometry assay. 25 μM of Aβ (1-40) (Bachem Inc., Torrance, Calif., USA; Lot #WM365) was incubated in microcentrifuge tubes at 37° C. for 1 week (in triplicate), either alone, or in the presence of 1.25 mM (ie. 1:50 M ratio of Aβ:PTI-48579), 0.41 mM, 0.138 mM and 0.046 mM of glucose pentasulfate in 150 mM Tris HCl, 10 mM NaCl, pH 7.0 (TBS). 50 μl aliquots were taken from each tube for analysis at 1 hr, 1 day, 3 days, and 1 week using Thioflavin T fluorometry as described in section 4.1. […]

[5] = target: T5, Aβ-heparan sulfate binding (Homo sapiens, UniProt P05067); test: Solid phase binding immunoassay, Aβ-heparan sulfate binding; settings: 2.5 to 0.093 mM; data not shown
T5 construct: 25 μM of Aβ (1-40)(Bachem Inc., Torrance, Calif., USA; Lot #WM365); purchased Bachem Inc., Torrance, Calif., USA
Procedure: as §2, with “This was followed by rinsing once with TTBS and probed for 45 minutes with biotinylated goat-anti mouse (diluted 1:1000) containing streptavidin-peroxidase or anti-biotin-peroxidase (1:500 dilution of a 2 μg/ml solution) (Sigma Chemical Co., St. Louis, Mo.) in TTBS containing 0.1% BSA. The wells were then rinsed 3 times with TTBS and 100 μl of a substrate solution (OPD-Sigma Fast from Sigma Chemical Co., St. Louis, Mo.) was added to each well and allowed to develop for 5 minutes or until a significant color change was observed.” left out

T3 sequence (P05067 672-711 limits assumed): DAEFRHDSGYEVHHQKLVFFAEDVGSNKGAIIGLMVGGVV
T2 sequence (P05067 672-711 limits assumed): as above
T4 sequence (P05067 672-711 limits assumed): as above
T5 sequence (P05067 672-711 limits assumed): as above

## O=C[C@H](OS(=O)(=O)O)[C@@H](OS(=O)(=O)O)[C@H](OS(=O)(=O)O)[C@@H](COS(=O)(=O)O)OS(=O)(=O)O [PTI-48579, glucose pentasulfate]
[1]; 25 μM islet amyloid polypeptide, 1 week
  dissolution of pre-formed amylin fibrils: 57%
[1]; 1 hour, 1 day and 2 days
  effect on islet amyloid polypeptide fibrillogenesis at earlier time points (in words): initial increase
[2]; 0.093 mM
  inhibition at 93 µM: 45%
[2]; 0.28 mM
  inhibition at 280 µM: 74%
[2]; 0.83 mM
  inhibition at 830 µM: 92%
[2]; 2.5 mM
  inhibition at 2500 µM: 78%
[3]; 0.16 mM
  dissolution of pre-formed Aβ amyloid fibrils: 23%
[3]; 0.31 mM
  dissolution of pre-formed Aβ amyloid fibrils: 31%
[3]; 0.63 mM
  dissolution of pre-formed Aβ amyloid fibrils: 47%
[3]; 1.25 mM
  dissolution of pre-formed Aβ amyloid fibrils: 60%
[4]; Example 1, 25 μM Aβ (1-40)
  effect on Aβ (1-40) amyloid fibril formation (in words): inhibited
[4]; Example 1, 25 μM Aβ (1-40), 1.25 mM compound, 37° C., 1 week, read-out: inhibition of Aβ (1-40) amyloid fibril formation
  inhibition at 1250 µM: 80%
[4]; Example 1, 1.25 mM compound, 3 days
  inhibition of Aβ amyloid fibril formation (in words): Significant inhibition
[4]; Example 2, 0.046 mM, 3 days
  inhibition of Aβ fibril formation (in words): did not significantly inhibit
[4]; Example 2, 0.138 mM, 3 days
  inhibition of Aβ fibril formation (in words): did not significantly inhibit
[4]; Example 2, 0.41 mM, 1 week, read-out: inhibition of Aβ (1-40) fibrillogenesis
  inhibition at 410 µM: 47%
[4]; Example 2, 0.41 mM, 3 days
  inhibition of Aβ fibril formation (in words): did not significantly inhibit
[4]; Example 2, 1.25 mM, 1 week, read-out: inhibition of Aβ (1-40) fibrillogenesis
  inhibition at 1250 µM: 72%
[4]; Example 2, 1.25 mM, 3 days, read-out: inhibition of Aβ fibril formation
  inhibition at 1250 µM: 39%
[5]
  inhibition of Aβ-heparan sulfate binding (in words): significant dose-dependent inhibition

## O=C[C@@H](OS(=O)(=O)O)[C@@H](OS(=O)(=O)O)[C@H](OS(=O)(=O)O)[C@@H](COS(=O)(=O)O)OS(=O)(=O)O [mannose pentasulfate, reference compound]
[1]; all time points (1 hr to 1 week)
  effect on islet amyloid polypeptide fibrillogenesis (in words): significant increase
[4]; Example 1, 25 μM Aβ (1-40)
  effect on Aβ (1-40) amyloid fibril formation (in words): ineffective inhibitors; also recorded: did not inhibit

## CO[C@H]1O[C@H](COS(=O)(=O)O)[C@@H](OS(=O)(=O)O)[C@H](OS(=O)(=O)O)[C@H]1OS(=O)(=O)O [methyl alpha-D-glucopyranoside 2,3,4,6-tetrasulfate, reference compound]
[4]; Example 1, 25 μM Aβ (1-40)
  effect on Aβ (1-40) amyloid fibril formation (in words): ineffective inhibitors

## CO[C@H]1O[C@H](COS(=O)(=O)O)[C@@H](OS(=O)(=O)O)[C@H](OS(=O)(=O)O)[C@@H]1OS(=O)(=O)O [methyl alpha-D-mannopyranoside 2,3,4,6-tetrasulfate, reference compound]
[4]; Example 1, 25 μM Aβ (1-40)
  effect on Aβ (1-40) amyloid fibril formation (in words): ineffective inhibitors

## O=S(=O)(O)OC[C@H]1O[C@@](COS(=O)(=O)O)(O[C@H]2O[C@H](COS(=O)(=O)O)[C@@H](OS(=O)(=O)O)[C@H](OS(=O)(=O)O)[C@H]2OS(=O)(=O)O)[C@@H](OS(=O)(=O)O)[C@@H]1OS(=O)(=O)O [sucrose octasulfate, reference compound]
[4]; Example 1, 25 μM Aβ (1-40)
  effect on Aβ (1-40) amyloid fibril formation (in words): ineffective inhibitors

## sucrose heptasulfate [reference compound]
[4]; Example 1, 25 μM Aβ (1-40)
  effect on Aβ (1-40) amyloid fibril formation (in words): ineffective inhibitors

## sucrose hexasulfate [reference compound]
[4]; Example 1, 25 μM Aβ (1-40)
  effect on Aβ (1-40) amyloid fibril formation (in words): ineffective inhibitors
